Source: patent US20160113921A1, “COMBINATION THERAPY COMPRISING OXAZOLIDINONE-QUINOLONES FOR USE IN TREATING BACTERIAL INFECTIONS” (MORPHOCHEM AKTIENGESELLSCHAFT FÜR KOMBINATORISCHE CHEMIE, priority 2013, published 2016)
In brackets after ≈: the same amount, converted by molar mass. Where two headings read alike, the source gives them in different places.

Columns and labels:
Type in all cases: cell-based
[1] = system: E. cloacae ATCC 13047; assay: MIC, broth microdilution (CLSI), CAMHB; conditions: monosubstance, Ecl ATCC13047
Procedure: (§1) MIC-testing was done immediately after preparation of the dilutions. All tests were done in duplicate and repeated once on a separate occasion.
(§2) 1 mL of the bacterial suspension was transferred into a tube containing 10 mL CAMHB and was vortexed thoroughly. (S. pneumoniae 1 mL in 10 mL CAMHB+5% lysed horse blood). Columns 1-15 of the 96-well plate were inoculated with 5 μL of this suspension (1-15=antibacterial solution, 16=sterile medium without test item).
(§3) Turbidity was read visually with a mirror.

[2] = system: E. coli NRZ-00401 (metallo β-lactamase VIM-1); assay: MIC, broth microdilution (CLSI), CAMHB; conditions: monosubstance, Ec NRZ00401
Procedure: as §1, §2, §3

[3] = system: E. faecium DSMZ 2146; assay: MIC, broth microdilution (CLSI), CAMHB; conditions: Enterococcus faecium; monosubstance; Efc DSMZ2146; read-out: MIC
Procedure: as §1, §2, §3

[4] = system: E. faecium UW 3695 (linezolid and quinolone-resistant); assay: MIC, broth microdilution (CLSI), CAMHB; conditions: Enterococcus faecium; monosubstance; Efc UW3695; read-out: MIC
Procedure: as §1, §2, §3

[5] = system: K. pneumoniae ATCC 13883; assay: MIC, broth microdilution (CLSI), CAMHB; conditions: monosubstance, Kp ATCC13883
Procedure: as §1, §2, §3

[6] = system: S. aureus NRS-119 (MRSA, linezolid- and quinolone-resistant); assay: MIC, broth microdilution (CLSI), CAMHB; conditions: Staphylococcus aureus; monosubstance; Sa NRS119; read-out: MIC
Procedure: as §1, §2, §3

[7] = system: S. aureus Visa Mu 50 (MRSA, vancomycin intermediate susceptible); assay: MIC, broth microdilution (CLSI), CAMHB; conditions: Staphylococcus aureus; monosubstance; Sa VisaMu50; read-out: MIC
Procedure: as §1, §2, §3

[8] = system: E. cloacae ATCC 13047; assay: Checkerboard titration of Compound 1 and colistin
Source text: (§4) The checkerboard consists of columns in which each well contains the same amount of antibacterial A being over i dilutions along the x-axis, and in rows in which each well contains the same amount of antibacterial B over j dilutions on the y-axis, i.e. serial dilutions of antibacterials A and B, respectively, are titrated in a rectangular fashion.
(§5) The fractional inhibitory concentration (FIC) is a mathematical expression of the effect of the combination of two antibacterial agents A and B. The FICs were calculated as the MIC of antibacterial A and antibacterial B in combination divided by the MIC of antibacterial A or antibacterial B alone.
(§6) The FICs and FIC index, respectively, are calculated according to the following equations:
(§7) FIC(A)=MIC(A in the presence of B)/MIC(A alone)
(§8) FIC(B)=MIC(B in the presence of A)/MIC(B alone)
(§9) The checkerboard titrations were performed three times.

[9] = system: E. coli ATCC 25922; assay: Checkerboard titration of Compound 1 and colistin
Source text: as §4, §5, §6, §7, §8, §9

[10] = system: Gram-positive strains tested; assay: MIC testing, statements on the Gram-positive strain panel; conditions: all Gram-positive strains tested; read-out: MIC (inhibitory concentration)
Source text: as §1

[11] = system: six selected indicator strains; assay: Checkerboard titration, statements on the six indicator strains; conditions: read-out: MIC of Compound 1 alone, checkerboard; strains as worded in the text
Source text: as §4, §5, §9

[12] = system: E. cloacae NRZ-00239 (VIM-1); assay: MIC, broth microdilution (CLSI), CAMHB; conditions: monosubstance; Ecl NRZ00239
Procedure: as §1, §2, §3

[13] = system: E. coli ATCC 25922; assay: MIC, broth microdilution (CLSI), CAMHB; conditions: monosubstance; Ec ATCC25922
Procedure: as §1, §2, §3

[14] = system: E. coli GNS-2601 (ESBL CTX-M-15); assay: MIC, broth microdilution (CLSI), CAMHB; conditions: monosubstance; Ec GNS2601
Procedure: as §1, §2, §3

[15] = system: E. coli NRZ-00302 (metallo β-lactamase NDM-1); assay: MIC, broth microdilution (CLSI), CAMHB; conditions: monosubstance; Ec NRZ00302
Procedure: as §1, §2, §3

[16] = system: K. pneumoniae NRZ-00002 (OXA-48); assay: MIC, broth microdilution (CLSI), CAMHB; conditions: monosubstance; Kp NRZ00002
Procedure: as §1, §2, §3

[17] = system: K. pneumoniae NRZ-00103 (KPC-2); assay: MIC, broth microdilution (CLSI), CAMHB; conditions: monosubstance; Kp NRZ00103
Procedure: as §1, §2, §3

[18] = system: K. pneumoniae NRZ-00535 (VIM-1); assay: MIC, broth microdilution (CLSI), CAMHB; conditions: monosubstance; Kp NRZ00535
Procedure: as §1, §2, §3

[19] = system: P. aeruginosa ATCC 10145; assay: MIC, broth microdilution (CLSI), CAMHB; conditions: monosubstance; Pa ATCC10145
Procedure: as §1, §2, §3

[20] = system: P. aeruginosa NRZ-00425 (VIM-1); assay: MIC, broth microdilution (CLSI), CAMHB; conditions: monosubstance; Pa NRZ00425
Procedure: as §1, §2, §3

[21] = system: P. mirabilis ATCC 9240; assay: MIC, broth microdilution (CLSI), CAMHB; conditions: monosubstance; Pm ATCC9240
Procedure: as §1, §2, §3

[22] = system: P. mirabilis NRZ-00185 (AmpC, type CMY-2); assay: MIC, broth microdilution (CLSI), CAMHB; conditions: monosubstance; Pm NRZ00185
Procedure: as §1, §2, §3

[23] = system: E. coli ATCC 25922; assay: Time-kill curves; conditions: E. coli ATCC25922; for growth- and kill rates k ('+' = growth, unmarked = kill rate): first four hours
[24] = system: E. coli NRZ-00401; assay: Time-kill curves; conditions: E. coli NRZ00401; for growth- and kill rates k ('+' = growth, unmarked = kill rate): first four hours
[25] = system: E. coli NRZ-00302; assay: Time-kill curves; conditions: E. coli NRZ00302; for growth- and kill rates k ('+' = growth, unmarked = kill rate): first four hours
[26] = system: E. coli GNS-2601; assay: Time-kill curves; conditions: E. coli GNS2601; for growth- and kill rates k ('+' = growth, unmarked = kill rate): first four hours
[27] = system: E. coli NRZ-00302 (NDM-1 β-lactamase); conditions: checkerboard
Source text: as §4, §5, §6, §7, §8, §9

[28] = system: K. pneumoniae NRZ-00535 (VIM-1 β-lactamase); conditions: checkerboard
Source text: as §4, §5, §6, §7, §8, §9

[29] = system: P. aeruginosa NRZ-00425 (VIM-2 β-lactamase); assay: microbe, parasite or virus in culture; conditions: checkerboard
Source text: as §4, §5, §6, §7, §8, §9

[30] = system: E. cloacae NRZ-00239 (VIM-1 β-lactamase); assay: Checkerboard titration of Compound 1 and colistin
Source text: as §4, §5, §6, §7, §8, §9

[31] = system: E. coli ATCC 25922, NRZ-00401, NRZ-00302 and GNS-2601; assay: Time-kill curves, statements on the four E. coli strains; conditions: one- or two-times MIC; four E. coli strains

`CC(=O)NC[C@H]1CN(c2ccc(OCC3(O)CCN(c4cc5c(cc4F)c(=O)c(C(=O)O)cn5C4CC4)CC3)c(F)c2)C(=O)O1` [Compound 1, 7-(4-{4-[(5S)-5-(acetylamino-methyl)-2-oxo-oxazolidin-3-yl]-2-fluoro-phenoxymethyl}-4-hydroxy-piperidin-1-yl)-1-cyclopropyl-6-fluoro-4-oxo-1,4-dihydro-quinoline-3-carboxylic] showed an MIC ([1]; Enterobacter cloacae, read-out: MIC) of 128 µg/mL (≈ 204 µM), an MIC ([2]; Escherichia coli, read-out: MIC) of 16 µg/mL (≈ 25.5 µM) and an MIC [3] of 0.06 µg/mL (≈ 0.0958 µM). For the same molecule, the MIC [4] was 0.06 µg/mL (≈ 0.0958 µM), the MIC ([5]; Klebsiella pneumoniae, read-out: MIC) was 128 µg/mL (≈ 204 µM) and the MIC [6] was 1 µg/mL (≈ 1.6 µM). For the same molecule, the MIC [7] was 0.06 µg/mL (≈ 0.0958 µM), the MIC ([8]; Enterobacter cloacae, ATCC13047, checkerboard, read-out: MIC (agent alone)) was > 256 µg/mL and the MIC ([9]; Escherichia coli, ATCC25922, read-out: MIC (agent alone)) was 8 to 16 µg/mL. For the same molecule, the MIC [10] was < 0.25 µg/mL and the MIC [11] was > 256 µg/mL.

In the case of colistin, the MIC [1] is reported as 64 µg/mL, the MIC [12] is reported as 0.5 µg/mL and the MIC [13] is reported as 1 µg/mL. The MIC [14] was 2 µg/mL, the MIC [15] was 1 µg/mL and the MIC [2] was 1 µg/mL. It also gave an MIC [5] of 0.03 µg/mL, an MIC [16] of 0.25 µg/mL and an MIC [17] of 0.25 µg/mL. For the same molecule, the MIC [18] was 0.25 µg/mL, the MIC [19] was 0.5 µg/mL and the MIC [20] was 1 µg/mL. The MIC [21] was >256 µg/mL, the MIC [22] was >256 µg/mL and the “growth- and kill rates k ('+' = growth, unmarked = kill rate)” value (“growth- and kill rates k” for short) ([23]; single agent at 1x its MIC) was 0.86 h⁻¹. The “growth- and kill rates k” value ([23]; single agent at 2x its MIC) was 1.04 h⁻¹, the “Viable counts at 8 h of exposure” value ([23]; single agent at 1x its MIC) was 0 log10 CFU/mL and the “Viable counts at 8 h of exposure” value ([23]; single agent at 2x its MIC) was 0 log10 CFU/mL. For the same molecule, the “growth- and kill rates k” value ([24]; single agent at 1x its MIC) was 2.46 h⁻¹, the “growth- and kill rates k” value ([24]; single agent at 2x its MIC) was 2.53 h⁻¹ and the “Viable counts at 8 h of exposure” value ([24]; single agent at 1x its MIC) was 0 log10 CFU/mL. For the same molecule, the “Viable counts at 8 h of exposure” value ([24]; single agent at 2x its MIC) was 0 log10 CFU/mL, the “growth- and kill rates k” value ([25]; single agent at 1x its MIC) was 1.63 h⁻¹ and the “growth- and kill rates k” value ([25]; single agent at 2x its MIC) was 1.89 h⁻¹. The “Viable counts at 8 h of exposure” value ([25]; single agent at 1x its MIC) was 1.95 log10 CFU/mL, the “Viable counts at 8 h of exposure” value ([25]; single agent at 2x its MIC) was 0 log10 CFU/mL and the “growth- and kill rates k” value ([26]; single agent at 1x its MIC) was 1.55 h⁻¹. The “growth- and kill rates k” value ([26]; single agent at 2x its MIC) was 1.80 h⁻¹, the “Viable counts at 8 h of exposure” value ([26]; single agent at 1x its MIC) was 0 log10 CFU/mL and the “Viable counts at 8 h of exposure” value ([26]; single agent at 2x its MIC) was 0 log10 CFU/mL. For the same molecule, the “MIC (agent alone)” value [27] was 0.5 to 1 µg/mL, the “MIC (agent alone)” value [28] was 0.5 to 2 µg/mL and the “MIC (agent alone)” value [29] was 2 µg/mL. For the same molecule, the “MIC (agent alone)” value ([8]; checkerboard) was 256 µg/mL, the “MIC (agent alone)” value [30] was 1 µg/mL and the “MIC (agent alone)” value ([30]; listed as col) was 0.5 to 1 µg/mL. The “MIC (agent alone)” value [9] was 1 to 2 µg/mL and the “type of activity in time-kill” value [31] was “bactericidal”.
